Experimental data published in patent US4500545A, “Hydroxyaminotetralincarboxamides” (Eli Lilly and Company, priority 1984, dated 1985).
“Also recorded” adds a separate entry of the source.

What was measured:
[1] = tested on: mean arterial blood pressure, anesthetized spontaneously hypertensive rats; assay: Blood pressure lowering in anesthetized spontaneously hypertensive rats (SHR); assay type: in vivo, rat (spontaneously hypertensive); conditions: ± standard error
Method: As previously stated, the compounds of this invention are dopamine agonists. As such, one of their properties, shared by many dopamine agonists, is the ability to lower blood pressure in anesthetized spontaneously hypertensive rats (SHR). Table 1 which follows gives the results of testing compounds of this invention which lowered the blood pressure of anesthetized SHR at dose levels of 1 mg./kg. or lower. In the Table, the first 4 columns give the substitution pattern of the hydroxyaminonaphthalene carboxamide and the second 4 columns the percent blood pressure lowering±standard error for the particular compound at 4 different dose levels.

prolactin secretion = assay: Prolactin secretion inhibition in reserpine-treated rats; assay type: in vivo, rat (adult male Sprague-Dawley); conditions: 1 mg./kg. intraperitoneal; reserpine-pretreated male rats; serum 1 hour after treatment
Method: The compounds of this invention are also useful as inhibitors of prolactin secretion. Dopaminergic drugs with such activity can be employed in the treatment of inappropriate lactation, such as postpartum lactation and galactorrhea. […] Each rat received an intraperitoneal injection of 2.0 mg. of reserpine in aqueous suspension 18 hours before administration of the test compound. The purpose of the reserpine was to keep prolactin levels uniformly elevated. The compounds under test were dissolved in water and were injected intraperitoneally at a 1 mg./kg. dose level. Each compound was administered to a group of 10 rats, and a control group of 10 intact males received an equivalent amount of solvent only. One hour after treatment all rats were killed by decapitation, and 150 μl. aliquots of serum were assayed for prolactin.
In the table, column 1 gives the name of the compound and column 2, the percent inhibition of prolactin secretion. The dosage was 1 mg./kg.

[2] = tested on: 6-hydroxydopamine-lesioned rats (nigro-neostriatal-lesioned), turning behavior; assay: Turning behavior in 6-hydroxydopamine-lesioned rats; assay type: in vivo, rat; conditions: 1 mg./kg. intraperitoneal; for Number of turns (average): counted over a 15-minute period after latency
Excerpt: Compounds with dopaminergic or dopamine agonist activity also affect turning behavior in a test procedure utilizing 6-hydroxydopamine-lesioned rats. In this test, nigro-neostriatal-lesioned rats, prepared by the procedure of Ungerstedt and Arbuthnott, Brain Res, 24, 485 (1970), are employed. A compound having dopamine agonist activity, upon injection, causes the rats to turn in circles contralateral to the side of the lesion. After a latency period, which varies from compound to compound, the number of turns is counted over a 15-minute period. The drugs to be administered are dissolved in water and the resulting aqueous solution injected into the rat by the intraperitoneal route at a 1 mg./kg. dose level.

dopamine receptor = conditions: literature; cited from earlier work
[3] = literature; cited from earlier work

SMILES | Percent lowering of mean arterial blood pressure ([1]; 1 mg./kg.) [%] | Percent lowering of mean arterial blood pressure ([1]; 7 mcg./kg.) [%] | Percent lowering of mean arterial blood pressure ([1]; 10 mcg./kg.) [%] | Percent lowering of mean arterial blood pressure ([1]; 100 mcg./kg.) [%] | Percent Inhibition of Prolactin Secretion (prolactin secretion) [%] | dopamine-like activity (in words) (dopamine receptor) | further results
CN(C)C1CCc2c(ccc(O)c2C(N)=O)C1 (racemic) [R=CONH2, R^1=H, R^2=Me, R^3=Me, dl-2-hydroxy-6-dimethylamino-5,6,7,8-tetrahydro-1-naphthalenecarboxamide] | -6.0 ± 0.5 | -6.8 ± 0.3 | -5.7 ± 0.3 | -6.7 ± 0.8 | – | – | –
CCCN(CCC)C1CCc2c(ccc(O)c2C(N)=O)C1 (racemic) [dl-2-Hydroxy-6-di-n-propylamino-5,6,7,8-tetrahydro-1-naphthalenecarboxamide] | – | – | – | – | 12 | – | –
NC(=O)c1c(O)ccc2c1CCC(N)C2 (racemic) [dl-2-Hydroxy-6-amino-5,6,7,8-tetrahydronaphthalene-1-carboxamide] | – | – | – | – | 13 | – | –
CCCN(CCC)C1CCc2cc(O)c(C(N)=O)cc2C1 (racemic) [dl-3-Hydroxy-7-di-n-propylamino-5,6,7,8-tetrahydro-2-naphthalenecarboxamide] | -41.9 ± 1.6 | -6.8 ± 0.5 | -19.6 ± 0.8 | -35.9 ± 2.3 | 88 | – | Percentage of rats exhibiting turning behavior [2]: 75%; Number of turns (average) [2]: 71
CN(C)C1CCc2c(ccc(O)c2O)C1 (centres unmarked) [Example M7, 2-dimethylamino-5,6-dihydroxy-1,2,3,4-tetralin] | – | – | – | – | – | dopamine-like activity; also recorded: Its action parallels that of apomorphine | –
CN(C)C1CCc2cc(O)c(C(N)=O)cc2C1 (racemic) [dl-3-hydroxy-7-dimethylamino-5,6,7,8-tetrahydro-2-naphthalenecarboxamide] | -32.5 ± 2.2 | -6.2 ± 0.7 | -14.0 ± 0.5 | -25.1 ± 3.0 | 36 | – | Percentage of rats exhibiting turning behavior [2]: 50%; Number of turns (average) [2]: 20
NC1CCc2cc(O)c(O)cc2C1 (centres unmarked) [ADTN, 2-amino-6,7-dihydroxy-1,2,3,4-tetralin] | – | – | – | – | – | dopamine-like action | –
NC(=O)c1cc2c(cc1O)CCC(N)C2 (racemic) [dl-3-Hydroxy-7-amino-5,6,7,8-tetrahydro-2-naphthlenecarboxamide] | -18.3 ± 4.3 | -3.6 ± 0.4 | -5.2 ± 0.8 | -10.2 ± 1.2 | 18 | – | –
CN(C)C1CCc2cc(O)c(O)cc2C1 (stereo not drawn) [6,7-dihydroxy isomer] | – | – | – | – | – | presynaptic dopamine receptor agonist | –
CC(C)NC1CCc2c(ccc(O)c2CO)C1O (centres unmarked) [1-hydroxymethyl-2,5-dihydroxy-6-isopropylamino-5,6,7,8-tetrahydronaphthalene] | – | – | – | – | – | – | bronchodilator activity (in words) [3]: bronchodilator
